From patent US12622915B2, “Methods of treating PDE IV-mediated diseases or conditions” (Vanda Pharmaceuticals Inc., priority 2020, dated 2026)

Assays:
Phosphodiesterase PDE1A = biological target: T1, Phosphodiesterase PDE1A (Homo sapiens, UniProt P54750); assay: Phosphodiesterase PDE1A enzyme assay; type: biochemical; conditions: N=2, Example 3
T1 construct: host or cells: insect Sf9 cells
From the text: (§1) Reference standards are run as an integral part of each assay to ensure the validity of the results obtained. Reference Compounds: • Phosphodiesterase PDE10A2 Papaverine • Phosphodiesterase PDE11A4 Dipyridamole • Phosphodiesterase PDE1A MMPX • Phosphodiesterase PDE2A EHNA • Phosphodiesterase PDE3A Cilostamide • Phosphodiesterase PDE4A1A Rolipram • Phosphodiesterase PDE4B1 Rolipram • Phosphodiesterase PDE5A Zaprinast • Phosphodiesterase PDE6 Zaprinast • Phosphodiesterase PDE7A IBMX • Phosphodiesterase PDE7B IBMX • Phosphodiesterase PDE8A1 Dipyridamole • Phosphodiesterase PDE9A2 Zaprinast
(§2) Phosphodiesterase PDE1A; Phosphodiesterase PDE5A; and Phosphodiesterase PDE9A2: • Source: Human recombinant insect Sf9 cells • Substrate: 0.10 μM […] • Vehicle: 1.00% DMSO • Significance Crit.: ≥50% of max stimulation or inhibition • Incubation Buffer: 10 mM Tris-HCl, pH 7.2, 10 mM MgCl2, 0.05% NaN3, 0.1% phosphate-free BSA • Quantitation Method: Quantitation of Fluorescein-GMP-IMAP • Pre-Incub. Time/Temp: 15 minutes @25° C. • Incubation Time/Temp: 30 minutes @25° C.
IC50 values are determined by a non-linear, least squares regression analysis using MathIQ™ (ID Business Solutions Ltd., UK). […] Where presented, the Hill coefficient (nH), defining the slope of the competitive binding curve, is calculated using MathIQ™. […]

Phosphodiesterase PDE2A = biological target: T2, Phosphodiesterase PDE2A (Homo sapiens, UniProt O00408); assay: Phosphodiesterase PDE2A enzyme assay; type: biochemical; conditions: N=2, Example 3
T2 construct: host or cells: insect Sf9 cells
From the text: as §1
as §2, with “PDE4A1A;” for “PDE1A;”, “PDE4B1; Phosphodiesterase PDE10A2; Phosphodiesterase PDE11A4; Phosphodiesterase PDE2A; Phosphodiesterase PDE3A; Phosphodiesterase PDE7A; Phosphodiesterase PDE7B;” for “PDE5A;”, “PDE8A1:” for “PDE9A2:”, “Fluorescein-AMP-IMAP” for “Fluorescein-GMP-IMAP”
IC50 values are determined by a non-linear, least squares regression analysis using MathIQ™ (ID Business Solutions Ltd., UK). […]

T2 sequence (O00408 whole entry): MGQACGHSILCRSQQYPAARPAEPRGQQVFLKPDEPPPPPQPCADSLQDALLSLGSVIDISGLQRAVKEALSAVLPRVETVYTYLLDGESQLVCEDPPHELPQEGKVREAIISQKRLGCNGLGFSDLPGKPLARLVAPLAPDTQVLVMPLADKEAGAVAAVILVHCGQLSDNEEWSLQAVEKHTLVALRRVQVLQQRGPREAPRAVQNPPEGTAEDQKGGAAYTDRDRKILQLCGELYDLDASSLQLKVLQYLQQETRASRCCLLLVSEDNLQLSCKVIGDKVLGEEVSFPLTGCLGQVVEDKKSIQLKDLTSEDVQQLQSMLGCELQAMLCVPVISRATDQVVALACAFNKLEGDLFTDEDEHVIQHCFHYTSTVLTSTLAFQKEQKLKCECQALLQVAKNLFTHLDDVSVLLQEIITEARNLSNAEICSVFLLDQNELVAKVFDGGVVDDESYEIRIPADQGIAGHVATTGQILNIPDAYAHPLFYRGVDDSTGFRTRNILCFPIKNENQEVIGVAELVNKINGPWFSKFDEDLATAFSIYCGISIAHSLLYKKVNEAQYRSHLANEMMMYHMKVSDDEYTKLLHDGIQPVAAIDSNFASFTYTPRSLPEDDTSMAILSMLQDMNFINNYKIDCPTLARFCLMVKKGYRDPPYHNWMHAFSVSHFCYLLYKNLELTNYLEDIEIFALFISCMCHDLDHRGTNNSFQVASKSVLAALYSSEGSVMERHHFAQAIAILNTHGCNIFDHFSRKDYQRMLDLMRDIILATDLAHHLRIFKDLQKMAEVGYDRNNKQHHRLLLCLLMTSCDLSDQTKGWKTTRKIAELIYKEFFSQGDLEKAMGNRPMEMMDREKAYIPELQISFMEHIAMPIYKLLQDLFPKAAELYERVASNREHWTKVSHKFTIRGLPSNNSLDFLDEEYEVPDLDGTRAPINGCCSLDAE
T1 sequence (P54750 whole entry): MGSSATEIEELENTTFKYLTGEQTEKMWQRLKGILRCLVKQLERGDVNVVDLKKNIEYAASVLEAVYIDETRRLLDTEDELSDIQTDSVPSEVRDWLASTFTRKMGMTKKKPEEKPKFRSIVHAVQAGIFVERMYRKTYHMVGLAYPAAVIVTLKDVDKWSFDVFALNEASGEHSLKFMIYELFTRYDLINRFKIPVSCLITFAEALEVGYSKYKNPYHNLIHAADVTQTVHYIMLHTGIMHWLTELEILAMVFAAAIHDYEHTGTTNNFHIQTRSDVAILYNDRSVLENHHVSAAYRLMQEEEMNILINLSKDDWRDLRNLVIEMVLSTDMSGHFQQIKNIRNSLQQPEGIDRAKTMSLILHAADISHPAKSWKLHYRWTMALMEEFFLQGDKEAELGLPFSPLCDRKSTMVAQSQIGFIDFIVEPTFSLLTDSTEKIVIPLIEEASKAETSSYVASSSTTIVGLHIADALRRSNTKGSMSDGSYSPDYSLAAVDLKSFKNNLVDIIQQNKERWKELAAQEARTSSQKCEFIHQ

inhibition at 10 µM (Phosphodiesterase PDE1A): -8%
inhibition at 10 µM (Phosphodiesterase PDE2A): 9%
Structure (SMILES): CNc1nc(Nc2ccccc2)nc(OCC(F)(F)C(F)F)n1 [compound of Formula (I), N^2-methyl-N^4-phenyl-6-(2,2,3,3-tetrafluoropropoxy)-1,3,5-triazine-2,4-diamine]
